Data on one compound can be found in US20220273643A1, “METHOD OF TREATING KRAS-ASSOCIATED CANCERS” (THE REGENTS OF THE UNIVERSITY OF MICHIGAN, priority 2019, published 2022).

Data set [1] relates to immortalized cells of non-cancer origin. As to the kind of experiment: IC50 in immortalized cells of non-cancer origin. The class given is cell-based.
Data set [2] can be described thus: bioavailability. The class given is in vivo. The conditions noted are these: systemic injection and oral administration.
In data set [3] the test system is UMSCC74B. The class given is in vivo. The method, then:
FIG. 1 depicts the effect of DGD1202 in mutant KRAS (and EGFR co-driven) head and neck (UMSCC74B) tumor model.
Tumor-bearing mice were treated with DGD1202 via oral gavage in 30 mg/kg dose biweekly for one week. This dose was selected based on its single-dose PK profile.

Data set [4] concerns the target purified EGFR (Homo sapiens, UniProt P00533). Nature of the data set: direct binding to purified EGFR.
In data set [5] the target is T1, EGFR (Homo sapiens, UniProt P00533).
T1 construct: endogenous in cells; host or cells: HCT-116, Panc1 (inferred; the sentence holding the result names no cells)
Nature of the data set: EGFR degradation. The class given is cell-based. The conditions noted are these: instead of inhibiting the activity.

In data set [6] the test system is NCI-H1975-AZR. Nature of the data set: NCI-H1975-AZR (osimertinib resistant) xenograft. It is filed as in vivo. The settings on record: SCID mice, 75 mg/kg oral gavage daily for two weeks. How it is done: FIG. 5 depicts the effect of DGD1202 on osimertinib resistant, NCI-H1975 lung cancer xenografts. (A). SCID mice bearing NCI-H1975 osimertinib resistant xenografts were treated with DGD1202 (75 mg/kg, daily, PO). The arrow marks the initiation of treatment with DGD1202. Change in tumor volume is plotted. (B). The effect of DGD1202 treatment on EGFR was assessed in tumors harvested 3 days post DGD1202 treatment.
A study was conducted to evaluate the efficacy of DGD1202 in mutant EGFR driven lung cancer model (FIG. 5).
Briefly, SCID mice bearing locally advanced NCI-H1975-AZR (osimertinib resistant) xenograft were treated daily with oral gavage of DGD1202 (75 mg/kg) for two weeks. Tumor volumes were measured using calipers at least three times a week. The effect of DGD1202 treatment on EGFR expression was determined by IHC staining 3-days after initiation of treatment.

A short description of data set [7]: solubility in water. It is filed as physicochemical. The conditions noted are these: pH 3.5.
Data set [8] has as its system cetuximab-resistant cell-lines. Nature of the data set: IC50 against cetuximab-resistant cell-lines. The class given is cell-based. The settings on record: cetuximab-resistant cell-lines expressing mutant KRAS.
In data set [9] the test system is Panc1. Nature of the data set: immunoblotting Panc1. The class given is cell-based. The conditions noted are these: Panc1, KRAS G12D specific antibody; preliminary data. How it is done:
(§1) FIG. 3 depicts the effect of DGD1202 on EGFR, KRAS and downstream signaling. (A). HCT-116 (colorectal cancer) cells were treated with DGD1202 for 5 h or 15 h, and whole cell lysates were probed with listed antibodies. (B). Evaluation of DGD1202 effects against the KRAS G12D driven pancreatic cell line (Panc1) tumor model; effect of treatment on the steady-state level of EGFR and mtKRAS was determined by immunoblotting; and GAPDH expression was assessed as a loading control.
(§2) The effect of DGD1202 on EGFR, ERK and AKT was also evaluated by immunoblotting. The preliminary data for DGD1202 in mutant KRAS driven HCT-116 (CRC) and Panc1 (Pancreas) cell lines are shown in FIG. 3A and FIG. 3B, respectively.
(§3) Cells were plated in 60-mm dishes at a density of 3×10^5 cells per dishes and incubated overnight or to 70% confluence. The cells were treated with the vehicle (DMSO) or DGD1202 and then were harvested at various time points. The pellets were washed twice with ice-cold PBS and re-suspended in lysis buffer for 30 min. After sonication, particulate material was removed by centrifugation at 13,000 rpm for 10 min at 4° C. […] After three additional washes in Tris-buffered saline, bound antibody was detected by enhanced chemiluminescence plus reagent. For quantification of relative protein levels, immunoblot films were scanned and analyzed using Image J 1.32j software. […]

The subject of data set [10] is EGFR-driven osimertinib resistant cell lines. As to the kind of experiment: activity in osimertinib resistant cell lines. It is filed as cell-based.
Data set [11] has as its system lung lesion. Nature of the data set: genetically engineered KRAS-LSL-G12D mouse model of lung cancer. The class given is in vivo, mice. The settings on record: 30 mg/kg oral gavage Monday-Friday for 4 weeks; paired t-test p=0.0577. How it is done:
The efficacy of DGD1202 treatment was assessed for KRAS-mutant lung tumor initiation and progression. A genetically engineered KRAS-LSL-G12D mouse model of lung cancer was used. This mouse carries a Lox-Stop-Lox (LSL) sequence followed by the KRAS G12D point mutation allele. Tumorigenesis was initiated by intra-nasal delivery of Adenovirus-Cre particles (1.5×10e^7 pfu) that transduced lung epithelial cells to express Cre recombinase that deletes the LSL cassette and allows the expression of the mutant KRAS oncogenic protein.
Eight weeks after viral delivery, the mice were treated either with vehicle or with DGD1202 on a Monday-Friday schedule for 4 weeks at a dose of 30 mg/kg oral gavage. When mice were 20-week old, the lungs were harvested and the H&E sections underwent morphological assessment. The histopathological spectrum of the lung lesions was noted and recorded in a double-blinded fashion for hyperplasia—alveolar or bronchial, the pattern of hyperplasia, adenoma, hyperplasia with focal atypia, bronchial dysplasia, adenomas, and atypical adenomatous hyperplasia. The percentage of lung lesion and total area of lung lesion from each lobe in every sample from both treatment group were scored and are shown in FIG. 6.

Data set [12] relates to PanIn (pancreatic intraepithelial neoplasia). Nature of the data set: KRAS G12D driven pancreatic tumor model (KC mice). The settings on record: 30 mg/kg oral gavage daily for 5 weeks, scored at week 11. The class given is in vivo. How it is done:
A study was conducted to evaluate the efficacy of DGD1202 in KRAS G12D driven pancreatic tumor model.
More specifically, 6-week old KC mice were treated with DGD1202 via oral gavage (30 mg/kg body weight, daily) for 5 weeks.

Data set [13] deals with T1, EGFR. As to the kind of experiment: EGF-induced EGFR dimerization. It is filed as cell-based.
For data set [14], the system named is HCT-116. Nature of the data set: clonogenic survival assay HCT-116. The class given is cell-based. The settings on record: KRAS G13D driven cetuximab-resistant colorectal cell-line; FIG. 2. The method, then: A study was conducted to evaluate the activity of DGD1202 in a KRAS G13D driven cetuximab-resistant colorectal cell-line (HCT-116) using clonogenic survival assays (FIG. 2) and in a pancreatic cancer cell line (Panc1) that contains KRAS G12D mutation (FIG. 3B).
More specifically, cells were plated at clonal density in 60 or 100 mm culture dishes in triplicate one day before treatment with a range of concentrations (e.g., 0-10 micro M). Eight to twelve days later, cells were fixed with acetic acid/methanol (1:7, v/v), stained with crystal violet (0.5%, w/v), and counted using a stereomicroscope. Drug cytotoxicity (surviving drug-treated cells) was measured and normalized to the survival of the untreated control cells.

Data set [15] is described as follows: liver microsomal stability. It is filed as in vitro ADME. The settings on record: compared to two other structurally close compounds. On the technique in general: Liver microsomes are a subcellular fraction often used to study metabolism.
For data set [16], the system named is HCT-116. As to the kind of experiment: immunoblotting HCT-116. It is filed as cell-based. The settings on record: preliminary data. The method, then:
as §1, §2, §3
On the technique in general: A western blot detects proteins with antibodies after separation by electrophoresis.

T1 sequence (P00533 25-1210): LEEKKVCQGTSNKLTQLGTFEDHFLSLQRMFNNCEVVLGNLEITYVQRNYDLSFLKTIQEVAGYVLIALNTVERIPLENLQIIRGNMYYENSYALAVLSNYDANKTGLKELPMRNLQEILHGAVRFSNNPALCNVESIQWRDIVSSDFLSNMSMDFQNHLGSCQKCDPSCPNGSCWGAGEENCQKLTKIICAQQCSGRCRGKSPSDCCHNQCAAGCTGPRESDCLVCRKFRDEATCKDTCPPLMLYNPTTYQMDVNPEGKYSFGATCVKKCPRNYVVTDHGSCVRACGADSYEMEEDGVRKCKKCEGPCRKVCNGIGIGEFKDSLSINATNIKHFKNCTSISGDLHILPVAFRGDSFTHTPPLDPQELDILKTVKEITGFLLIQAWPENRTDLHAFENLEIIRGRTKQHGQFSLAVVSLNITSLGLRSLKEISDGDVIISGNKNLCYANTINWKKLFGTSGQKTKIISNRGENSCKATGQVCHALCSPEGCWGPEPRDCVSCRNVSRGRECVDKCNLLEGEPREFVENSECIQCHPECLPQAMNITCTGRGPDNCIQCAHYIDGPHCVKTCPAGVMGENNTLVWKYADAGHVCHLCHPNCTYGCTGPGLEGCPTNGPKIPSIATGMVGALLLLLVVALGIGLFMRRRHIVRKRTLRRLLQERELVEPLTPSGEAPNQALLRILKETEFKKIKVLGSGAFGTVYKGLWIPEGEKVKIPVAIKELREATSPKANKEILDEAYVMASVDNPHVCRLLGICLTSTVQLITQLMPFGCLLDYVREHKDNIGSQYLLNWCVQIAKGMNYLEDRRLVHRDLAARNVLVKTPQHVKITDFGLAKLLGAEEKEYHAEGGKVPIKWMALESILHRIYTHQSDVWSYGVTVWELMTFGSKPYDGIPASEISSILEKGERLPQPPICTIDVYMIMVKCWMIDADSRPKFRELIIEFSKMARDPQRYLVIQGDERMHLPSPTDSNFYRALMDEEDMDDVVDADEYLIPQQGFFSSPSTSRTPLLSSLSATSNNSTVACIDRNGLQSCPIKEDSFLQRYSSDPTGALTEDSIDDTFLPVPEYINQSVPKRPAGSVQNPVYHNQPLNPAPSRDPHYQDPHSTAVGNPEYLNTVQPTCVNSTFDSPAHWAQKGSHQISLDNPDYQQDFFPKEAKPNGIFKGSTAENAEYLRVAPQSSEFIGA
Sequence of purified EGFR (P00533 25-1210): as above

In the case of `CN1CCC2(CC1)N=C(SCC(=O)Nc1cnc3ccccc3c1)C(c1ccc(Br)cc1)=N2` [DGD1202, 2-((3-(4-bromophenyl)-8-methyl-1,4,8-triazaspiro[4.5]deca-1,3-dien-2-yl)thio)-N-(quinolin-3-yl)acetamide], the IC50 was greater than 20 µM in data set [1] and 500 to 2200 nM in data set [8]. Also, the bioavailability entry in data set [2] is listed as “bioavailable”. Moreover, the “safety of dose and regimen” value in data set [3] (30 mg/kg oral gavage, tumor-bearing mice) is reported as “safe”. Moreover, in [3] (UMSCC74B tumor-bearing mice, DGD1202 30 mg/kg oral gavage, cetuximab 100 mg/kg (FIG. 1), P<0.001 for DGD1202), the tumor growth result is “significant tumor growth suppression”. The “binding to purified EGFR” value in data set [4] is “directly binds to purified EGFR”. Moreover, the EGFR degradation result in data set [5] is given as “degrades EGFR”. For the same compound, the “efficacy on tumor volume” value in data set [6] is “exhibited efficacy”. In addition, the solubility in water entry in data set [7] is on record as “soluble in water at pH 3.5”. For the same compound, the “EGFR and mtKRAS levels by immunoblotting” value in data set [9] is “affected both EGFR and mtKRAS (Panc1) levels”. Also, the “activity in EGFR-driven osimertinib resistant cell lines” value in data set [10] is recorded as “selectively active”. For the same compound, the “percentage of lung lesion and total area of lung lesion vs vehicle” value in [11] is “tend towards significance”. Further, the “effect on PanIn (pancreatic intraepithelial neoplasia)” value in data set [12] is “significantly reduced propensity for developing PanIn”. Moreover, the “EGF-induced EGFR dimerization” value in data set [13] is recorded as “blocks EGF-induced EGFR dimerization”. Besides, the clonogenic survival entry in [14] was “effective”. In [15], the liver microsomal stability entry is “much better liver microsomal stability”. Further, in data set [16] (HCT116, PAN-RAS antibody, 5 h or 15 h), the “EGFR and KRAS levels by immunoblotting” value is “affected both EGFR and mtKRAS”. Also, the “downstream signaling pAKT and pERK by immunoblotting” value in data set [16] (HCT-116) was “affected downstream signaling in pAKT and pERK”.

In general, IC50 refers to the concentration that gives 50% inhibition. A high value points to weaker potency in that assay.
